According to patent publication US7563895B2, “Quinoxaline compounds” (Janssen Pharmaceutica, N.V., priority 2003, dated 2009):

Biological target: T1, CCK2 receptor (Homo sapiens, UniProt P32239)
T1 construct: Membranes were prepared from the HEKZFP cells after induction; endogenous in cells; host or cells: HEKZFP cells (T-REx-293 with tet-inducible ZFP-VP16 specific for the CCK2R gene), doxycycline-induced; membrane preparation
T1 sequence (P32239 1-447): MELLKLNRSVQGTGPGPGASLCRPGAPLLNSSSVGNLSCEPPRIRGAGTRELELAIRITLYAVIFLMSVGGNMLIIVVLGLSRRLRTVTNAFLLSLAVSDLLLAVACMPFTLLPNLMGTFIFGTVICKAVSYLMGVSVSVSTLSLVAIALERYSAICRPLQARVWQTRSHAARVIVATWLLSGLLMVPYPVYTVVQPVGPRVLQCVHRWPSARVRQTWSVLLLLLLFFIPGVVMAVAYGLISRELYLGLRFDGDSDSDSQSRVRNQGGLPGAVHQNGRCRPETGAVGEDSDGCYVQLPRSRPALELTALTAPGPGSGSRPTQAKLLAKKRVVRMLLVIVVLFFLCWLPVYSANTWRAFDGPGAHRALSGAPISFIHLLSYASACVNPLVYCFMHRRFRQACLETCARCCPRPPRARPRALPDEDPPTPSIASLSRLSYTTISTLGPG
Assay: CCK2 receptor radioligand binding assay ([125I]-BH-CCK-8S, HEKZFP cell membranes)
Conditions: competition with [125I]-BH-CCK-8S, membranes of induced HEKZFP cells, 60 min at 21±3° C., Cheng-Prusoff
Description: Zinc Finger Proteins (ZFP) specific for the CCK2R gene were identified by Sangamo Biosciences. The ZFP domain was fused with the herpes simplex virus VP16 activation domain, and the fusion protein was subsequently cloned into the pcDNA3 mammalian expression vector (Invitrogen, San Diego, Calif.). […] After 2 weeks of selection in culture medium containing […] Zeocin (Invitrogen), sixty drug-resistant stable clones were isolated and analyzed for ZFP expression as well as CCK2R induction upon addition of doxycycline to the culture medium.
HEKZFP cells were grown in DMEM supplemented with L-glutamine (2 mM), penicillin (50 units/mL) and streptomycin (50 μg/mL) and 10% FBS (v/v).
Membranes were prepared from the HEKZFP cells after induction. […] The thawed pellets were homogenized using a Polytron PT-10 (7×1 s). The homogenates were centrifuged for 5 min at 1500 rpm (600×g), and the resulting pellets were discarded. The supernatants were re-centrifuged in order to collect the receptor-membrane pellets (25 min 15,000 rpm; 39,800×g), which were re-suspended in buffer A.
The assay preparation was incubated for 1 h at 21±3° C., and then the assay was terminated by rapid filtration of the preparation under reduced pressure. The loaded filters were washed three times using undiluted PBS (100 μL), and then 100 μL of scintillation fluid was added to the filter plate. Bound radioactivity was determined using a Topcount (Packard BioScience, Meriden, Conn.) with a count time of 1 min. […] To validate the radioligand concentration and incubation time for the assay, saturation and kinetic binding studies were also conducted (see M. F. Morton, The Pharmacological Characterization of Cholecystokinin Receptors in the Human Gastrointestinal Tract. PhD Thesis, University of London, 2000). […] The assay was then terminated according to the procedure outlined above.
The pKi values were determined using the equation of Y.-C.
To circumvent problems associated with computer-assisted data analysis of compounds with low affinity, the data obtained in the current study were weighed according to a method described by Morton. In brief, 100% and 0% specific binding were defined independently using total binding and binding obtained in the presence of a high concentration of the reference antagonist, 2-NAP.

In order of falling Ki:
1. O=C(N[C@@H](c1ccc(F)cc1F)C(F)(F)F)c1ccc(Cl)cc1NS(=O)(=O)c1cccc2nccnc12 [Example 29, (S)-4-Chloro-N-[1-(2,4-difluoro-phenyl)-2,2,2-trifluoroethyl]-2-(quinoxaline-5-sulfonylamino)-benzamide]  0.501 µM
2. C[C@H]1COCCN1C(=O)c1ccc(Br)cc1NS(=O)(=O)c1cccc2nccnc12 [Example 28, (S)-Quinoxaline-5-sulfonic acid [5-bromo-2-(3-methylmorpholine-4-carbonyl)-phenyl]-amide]  0.398 µM
3. O=C(c1ccc(Br)cc1NS(=O)(=O)c1cccc2nccnc12)N1CCCc2cc(F)ccc2C1 [Example 24, Quinoxaline-5-sulfonic acid [5-bromo-2-(7-fluoro-1,3,4,5-tetrahydro-benzo[c]azepine-2-carbonyl)-phenyl]-amide]  0.316 µM
4. C[C@@H]1COC[C@H](C)N1C(=O)c1ccc(I)cc1NS(=O)(=O)c1cccc2nccnc12 [Example 25, (R,S)-Quinoxaline-5-sulfonic acid [2-(3,5-dimethylmorpholine-4-carbonyl)-5-iodophenyl]-amide]  0.316 µM
5. O=C(c1ccc(I)cc1NS(=O)(=O)c1cccc2nccnc12)N1CCC(O)CC1 [Example 26, Quinoxaline-5-sulfonic acid [2-(4-hydroxy-piperidine-1-carbonyl)-5-iodo-phenyl]-amide]  0.316 µM
6. C[C@@H]1COC[C@H](C)N1C(=O)c1ccc(Br)cc1NS(=O)(=O)c1cccc2nccnc12 [Example 27, meso-Quinoxaline-5-sulfonic acid [2-(3,5-dimethylmorpholine-4-carbonyl)-5-bromophenyl]-amide]  0.316 µM
7. C[C@H]1COCCN1C(=O)c1ccc(I)cc1NS(=O)(=O)c1cccc2nccnc12 [Example 23, (S)-Quinoxaline-5-sulfonic acid [5-iodo-2-(3-methylmorpholine-4-carbonyl)-phenyl]-amide]  0.251 µM
8. O=C(c1ccc(Cl)cc1NS(=O)(=O)c1cccc2nccnc12)N1CCOc2ccccc2C1 [Example 22, Quinoxaline-5-sulfonic acid [5-chloro-2-(2,3-dihydro-5H-benzo[f][1,4]oxazepine-4-carbonyl)-phenyl]-amide]  0.158 µM
9. O=C(c1ccc(Br)cc1NS(=O)(=O)c1cccc2nccnc12)N1CCCCCC1 [Example 21, Quinoxaline-5-sulfonic acid [2-(azepane-1-carbonyl)-5-bromophenyl]-amide]  0.126 µM
10. C[C@@H]1COCCN1C(=O)c1ccc(Br)cc1NS(=O)(=O)c1cccc2nccnc12 [Example 12, (R)-Quinoxaline-5-sulfonic acid [5-bromo-2-(3-methylmorpholine-4-carbonyl)-phenyl]-amide]  0.0794 µM
11. C[C@@H]1COCCN1C(=O)c1ccc(I)cc1NS(=O)(=O)c1cccc2nccnc12 [Example 19, (R)-Quinoxaline-5-sulfonic acid [5-iodo-2-(3-methylmorpholine-4-carbonyl)-phenyl]-amide]  0.0794 µM
12. O=C(c1cc(Cl)c(Cl)cc1NS(=O)(=O)c1cccc2nccnc12)N1CCOCC1 [Example 20, Quinoxaline-5-sulfonic acid [4,5-dichloro-2-(morpholine-4-carbonyl)-phenyl]-amide]  0.0794 µM
13. O=C(NCc1ccc(F)cc1F)c1ccc(Br)cc1NS(=O)(=O)c1cccc2nccnc12 [Example 17, 4-Bromo-N-(2,4-difluoro-benzyl)-2-(quinoxaline-5-sulfonylamino)-benzamide]  0.0631 µM
14. O=C(c1ccc(I)cc1NS(=O)(=O)c1cccc2nccnc12)N1CCCCCC1 [Example 18, Quinoxaline-5-sulfonic acid [2-(azepane-1-carbonyl)-5-iodophenyl]-amide]  0.0631 µM
15. O=C(c1ccc(Br)cc1NS(=O)(=O)c1cccc2nccnc12)N1CCCc2ccccc2C1 [Example 10, Quinoxaline-5-sulfonic acid [5-bromo-2-(1,3,4,5-tetrahydrobenzo[c]azepine-2-carbonyl)phenyl]-amide]  0.0501 µM
16. C[C@@H](NC(=O)c1ccc(Br)cc1NS(=O)(=O)c1cccc2nccnc12)c1ccc(F)cc1 [Example 8, (R)-4-Bromo-N-[1-(4-fluorophenyl)-ethyl]-2-(quinoxaline-5-sulfonylamino)-benzamide]  0.0398 µM
17. C[C@H](NC(=O)c1ccc(Cl)cc1NS(=O)(=O)c1cccc2nccnc12)c1ccc(Cl)cc1Cl [Example 9, (S)-4-Chloro-N-[1-(2,4-dichlorophenyl)ethyl]-2-(quinoxaline-5-sulfonylamino)-benzamide]  0.0398 µM
18. O=C(NCc1ccc(F)cc1Cl)c1ccc(Br)cc1NS(=O)(=O)c1cccc2nccnc12 [Example 16, 4-Bromo-N-(2-chloro-4-fluoro-benzyl)-2-(quinoxaline-5-sulfonylamino)-benzamide]  0.0398 µM
19. C[C@@H](NC(=O)c1ccc(Cl)cc1NS(=O)(=O)c1cccc2nccnc12)c1ccc(F)cc1 [Example 7, (R)-4-Chloro-N-[1-(4-fluorophenyl)-ethyl]-2-(quinoxaline-5-sulfonylamino)-benzamide]  0.0316 µM
20. O=C(c1ccc(I)cc1NS(=O)(=O)c1cccc2nccnc12)N1CCCCC1 [Example 4, Quinoxaline-5-sulfonic acid [5-iodo-2-(piperidine-1-carbonyl)-phenyl]-amide]  0.0251 µM
21. C[C@@H](NC(=O)c1cc(Cl)c(Cl)cc1NS(=O)(=O)c1cccc2nccnc12)c1ccc(F)cc1F [Example 5, (R)-4,5-Dichloro-N-[1-(2,4-difluorophenyl)ethyl]-2-(quinoxaline-5-sulfonylamino)-benzamide]  0.0158 µM
22. C[C@@H](NC(=O)c1ccc(Cl)cc1NS(=O)(=O)c1cccc2nccnc12)c1ccc(F)cc1F [Example 3, (R)-4-Chloro-N-[1-(2,4-difluorophenyl)-ethyl]-2-(quinoxaline-5-sulfonylamino)-benzamide]  0.0126 µM
23. C[C@@H](NC(=O)c1ccc(I)cc1NS(=O)(=O)c1cccc2nccnc12)c1ccc(F)cc1F [Example 15, (R)—N-[1-(2,4-Difluorophenyl)-ethyl]-4-iodo-2-(quinoxaline-5-sulfonylamino)-benzamide]  0.0126 µM
24. C[C@H](c1ccccc1)N(C)C(=O)c1ccc(Br)cc1NS(=O)(=O)c1cccc2nccnc12 [Example 33, (R)-4-Bromo-N-methyl-N-(1-phenyl-ethyl)-2-(quinoxaline-5-sulfonylamino)-benzamide]  0.0126 µM
25. C[C@@H](NC(=O)c1ccc(Br)cc1NS(=O)(=O)c1cccc2nccnc12)c1ccc(Cl)cc1Cl [Example 1, (R)-4-Bromo-N-[1-(2,4-dichlorophenyl)-ethyl]-2-(quinoxaline-5-sulfonylamino)-benzamide]  0.00794 µM
26. C[C@H](c1ccccc1)N(C)C(=O)c1ccc(I)cc1NS(=O)(=O)c1cccc2nccnc12 [Example 34, (R)-4-Iodo-N-methyl-N-(1-phenyl-ethyl)-2-(quinoxaline-5-sulfonylamino)-benzamide]  0.00794 µM

In order of rising pKi:
1. O=C(c1ccc(Cl)cc1NS(=O)(=O)c1cccc2nccnc12)N1CCOCC1 [Example 14, (R)-Quinoxaline-5-sulfonic acid [5-chloro-2-(morpholine-4-carbonyl)phenyl]-amide]  6.5
2. O=C(c1ccc(Br)cc1NS(=O)(=O)c1cccc2nccnc12)N1CCOCC1 [Example 11, (R)-Quinoxaline-5-sulfonic acid [5-bromo-2-(morpholine-4-carbonyl)-phenyl]-amide]  7.2
3. O=C(c1ccc(Br)cc1NS(=O)(=O)c1cccc2nccnc12)N1CCCCC1 [Example 32, Quinoxaline-5-sulfonic acid [5-bromo-2-(piperidine-1-carbonyl)-phenyl]-amide]  7.2
4. O=C(c1ccc(I)cc1NS(=O)(=O)c1cccc2nccnc12)N1CCOCC1 [Example 6, Quinoxaline-5-sulfonic acid [5-iodo-2-(morpholine-4-carbonyl)-phenyl]-amide]  7.5
